Assay results reported in patent publication US9535058B2, “Flow chamber analyte detection method” (Drexel University, priority 2010, dated 2017).

System: Bovine aortic endothelial cells (BAECs)
Assay: Shear stress-induced NO production by endothelial cells in the two-compartment flow chamber, NO electrode measurement
Assay type: cell-based
Settings: 1 mM L-NAME
Method: Bovine aortic endothelial cells (BAECs) were cultured in Dulbecco's modified Eagle's medium (Mediatech Cellgro), supplemented with 10% fetal bovine serum (Sigma), 2 mmol/l L-glutamine (Mediatech Cellgro), and penicillin-streptomycin (Mediatech Cellgro). The cells were grown to confluency and subsequently plated onto the lower surface of individual polyester Transwell® membranes (Corning Transwell Permeable Supports having a 24 mm diameter culture area with 3 μm pores). The Transwell® membranes were then placed in an incubator overnight, inverted and cultured for 1 day before conducting the experimental study. The Transwell® membranes were subsequently washed 3 three times with a solution of Dulbecco's Phosphate Buffered Saline (PBS) with calcium/magnesium (Sigma) supplemented with 70 μM L-arginine (L-arg) (Sigma) and inserted into the flow chamber.
The flow chamber included an electrode and equipment for measuring NO (TBR4100 4-channel Free Radical Analyzer and 200 μm diameter mini sensors for NO measurements ISO-NOPF). The electrodes were frequently recoated with nafion (Sigma) and re-calibrated during the experimental study to improve selectivity. The recoating process involved at least two dip/dry sessions. The electrodes were calibrated by the decomposition of a NO donor S-nitroso-N-acetyl-penicillamine (SNAP) using Cu(II). The SNAP was prepared by dissolving 5 mg EDTA and 5.0 mg+/−2.0 mg of SNAP in 250 mL HPLC grade water. The electrode was immersed in 12 mL of 0.1 M copper(II) sulfate in distilled water for about 1 to about 2 hours until the electrode stabilized. Aliquots of SNAP were sequentially added in an amount of about 10 μL, 20 μL, 40 μL, 80 μL after each signal reached a plateau. A multipoint calibration plot was created using Data-Trax software (produced by WPI). The sampling rate was 10 samples/s. The change in recorded potential was converted to corresponding molarities of NO produced by SNAP addition. The efficiency of the conversion of SNAP to NO was 0.6. Electrode sensitivity was at least about 10 pA/nM. […] The temperature probe supplied by WPI was pre-scaled using a two-point entry of known temperatures (0.03125V=1° C., 0.625V=20° C.).
The dimensions (in cm) of the flow channel were about: 4.57 W×12.19 L×0.025 H. The flow inlet and outlet had large reservoirs with sampling ports. A glass coverslip covered an opening in the bottom plate, allowing visualization of the cell layer and the electrode on an inverted microscope. As shown in FIGS. 5-6, endothelial cells were grown on the lower surface of a Transwell® porous membrane, which fit into the flow chamber flush with the upper plate of the flow chamber. […] Below the Transwell® membrane, fluid flowed through the parallel plate channel that defined the lower compartment, exposing the endothelial cells to uniform shear stress. Above the Transwell® membrane, a stagnant upper fluid compartment, having a small volume housed the NO electrode and temperature sensor. This design placed the electrode out of the fluid flow avoiding problems associated with potential flow sensitivities, flow disturbances and chamber leaking at the electrode insertion site. Furthermore, due to the small volume and zero flux condition at the other boundaries of the stagnant upper fluid compartment and the short diffusion distance through the membrane, the concentration of NO in the upper fluid compartment was nearly uniform and rapidly equilibrated with the concentration in the cell layer. The electrode was lowered into the upper compartment of the flow chamber until it rested on the surface of the Transwell® membrane at a fixed distance from the ECs of about 10 μm equal to the thickness of the membrane. This configuration allowed the NO generated by the cells to be measured abluminally from the endothelial cell layer. Due to the temperature sensitivity of the NO electrode, the flow chamber was enclosed in a water bath at 37° C. in order to prevent heat loss and temperature fluctuations. […]

SMILES: COC(=O)[C@@H](N)CCCNC(=N)N[N+](=O)[O-] [L-NAME, Nω-Nitro-L-arginine methyl ester]
- RNO (NO production rate) as % of RNO estimated from untreated ECs, hyperbolic model (L-arg also in perfusate, shear stress change 0.1 to 20 dyn/cm^2, hyperbolic model fit): about 57.6%
- RNO (NO production rate) as % of RNO estimated from untreated ECs, linear model (L-arg also in perfusate, shear stress change 0.1 to 20 dyn/cm^2, linear model fit): about 57.3%
- RNO (NO production rate) as % of RNO estimated from untreated ECs, sigmoidal model (L-arg also in perfusate, shear stress change 0.1 to 20 dyn/cm^2, sigmoidal model fit): about 58.3%
- reduction of steady-state NO concentration changes in response to shear stress step changes after treatment with L-NAME (pH 7.2, step changes from 0.1 dyn/cm^2 to 1, 6, 10 or 20 dyn/cm^2, vs before treatment, FIG. 10): 40%
- effect on shear stress-induced NO concentration changes (Example 1, in words) (flow-induced shear stress stimulation): partially attenuated
- steady-state NO concentration changes after treatment, as % of the untreated values (average) (shear stress step changes from 0.1 dyn/cm^2, FIG. 10): 60%
- effect on flow induced NO response (Example 2) (step changes from about 1 to about 5 and about 1 to about 10 dyn/cm^2): significantly reduced
